Some test systems named below: NCI-H226; OVCAR-5; CAKI-1; MCF7; RXF 393; UACC-257; COLO 205; NCI-H522; UACC-62; SF-295; SR; MOLT-4; HL-60; HCT-15; EKVX; HOP-92; TK-10; HT-29; LOX IMVI.
Assay in all cases: NCI-60 cell line screen, 48 h

SMILES strings stand for the structures.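 Cells were grown in 96-well plates and exposed to each compound for 48 hours at five concentrations; endpoints were interpolated linearly between bracketing concentrations, or set to the highest concentration if not reached. Abbreviation: GI50, concentration required for 50% inhibition of growth.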 The source made the active and inactive calls. No stated cut-off is given here; in the data, active = GI50 up to about 1.1 µM and inactive = higher.

The results in this text go back to ChEMBL document CHEMBL1201862, “PubChem BioAssay data set” (2004).

`Cc1cccc2nc3n(c12)C(=O)c1ccccc1-3`: the GI50 in the test with NCI-H226, in the test with OVCAR-5, in the test with CAKI-1, with MCF7, in the test with RXF 393 and in the test with UACC-257 was > 100 µM (inactive) each time. Further, the GI50 was > 100 µM (inactive) in the test on COLO 205; > 100 µM (inactive) in the test on NCI-H522; > 100 µM (inactive) in the test with UACC-62; 49.9 µM (inactive) with SF-295; > 100 µM (inactive) with SR; > 100 µM (inactive) in the test with MOLT-4. Also, the GI50 was > 100 µM (inactive) with HL-60; above 100 µM in the test with HCT-15; 91.4 µM (inactive) in the test with EKVX; > 100 µM (inactive) with HOP-92; > 100 µM (inactive) with TK-10; > 100 µM (inactive) in the test with HT-29.

For `O=C(NCCCCNCCCNC(=O)C(F)(F)F)C(F)(F)F`, the GI50 in the test on NCI-H226, in the test on OVCAR-5, with CAKI-1, with MCF7, with RXF 393 and in the test with UACC-257 was > 100 µM (inactive) in each case. The GI50 is > 100 µM (inactive) in the test with COLO 205; > 100 µM (inactive) in the test with NCI-H522; > 100 µM (inactive) with UACC-62; 32.6 µM (inactive) in the test with SF-295; > 100 µM (inactive) with SR; > 100 µM (inactive) in the test with MOLT-4. Further, the GI50 in the test with HL-60 was 5.07 µM (inactive); in the test with HCT-15, above 100 µM; in the test on EKVX, > 100 µM (inactive); in the test on HOP-92, > 100 µM (inactive); in the test with TK-10, > 100 µM (inactive); with HT-29 it was > 100 µM (inactive).

As to `CN(C)CCCN1c2ccccc2CCc2cc([N+](=O)[O-])ccc21`, the GI50 with NCI-H226 was 17.5 µM (inactive); in the test on OVCAR-5, 16.5 µM (inactive); in the test on LOX IMVI, 14.4 µM (inactive); with CAKI-1, 15.5 µM (inactive); with MCF7, 16.8 µM (inactive); in the test with RXF 393, 12.6 µM (inactive). Moreover, the GI50 with UACC-257 is 15 µM (inactive); in the test with COLO 205 it was 16.4 µM (inactive); in the test on NCI-H522, 15.7 µM (inactive); with UACC-62 it was 14.3 µM (inactive); in the test with SF-295, 14.5 µM (inactive); with SR, 18.7 µM (inactive). Moreover, the GI50 with MOLT-4 was 15.8 µM (inactive); with HCT-15 it was 18.5 µM; in the test on EKVX it was 20.3 µM (inactive); in the test with TK-10, 14.6 µM (inactive); in the test on HT-29, 15.3 µM (inactive).

With `CCn1c(CCl)nc2c1C(=O)c1ccccc1C2=O`, the GI50 with NCI-H226 was 0.225 µM (active); with OVCAR-5, 1.84 µM (inactive); with MCF7, 1.87 µM (inactive); in the test on RXF 393 it was 1.85 µM (inactive); in the test with UACC-257, 1.67 µM (inactive); in the test with NCI-H522, 0.292 µM (active). Besides, the GI50 was 1.28 µM (inactive) in the test with UACC-62; 1.88 µM (inactive) with SF-295; 0.401 µM (active) in the test on SR; 0.356 µM (active) in the test with MOLT-4; 2.43 µM (inactive) with HL-60; 1.66 µM with HCT-15. The GI50 was 2.46 µM (inactive) with EKVX, 2.14 µM (inactive) in the test on HOP-92, 2.51 µM (inactive) in the test on TK-10 and 1.78 µM (inactive) with HT-29.

On to `Cc1cc(NN)nc2[nH]nc(N)c12`, for which the GI50 in the test with NCI-H226, in the test on OVCAR-5, with LOX IMVI, with CAKI-1, in the test on MCF7 and in the test on RXF 393 was > 100 µM (inactive) throughout. For the same compound, the GI50 with UACC-257 was > 100 µM (inactive); in the test on COLO 205, > 100 µM (inactive); with NCI-H522, > 100 µM (inactive); in the test on UACC-62 it was > 100 µM (inactive); with SF-295, > 100 µM (inactive); in the test on SR it was 69.5 µM (inactive). In addition, the GI50 is 43.3 µM (inactive) in the test on MOLT-4; above 100 µM with HCT-15; > 100 µM (inactive) with EKVX; > 100 µM (inactive) with HOP-92; > 100 µM (inactive) in the test on TK-10; > 100 µM (inactive) with HT-29.

As for `C=C1C[C@H](O)[C@H]2C(C[Se]c3ccccc3)C(=O)O[C@@H]2[C@H]2[C@H](C)C(O)C[C@@H]12` (some centres undefined), the GI50 with NCI-H226 is 23.1 µM (inactive); with OVCAR-5, 20.6 µM (inactive); in the test with LOX IMVI, 21.2 µM (inactive); with CAKI-1, 71.6 µM (inactive); in the test with MCF7, > 100 µM (inactive); in the test on RXF 393, 13.1 µM (inactive). The GI50 with UACC-257 was 37.9 µM (inactive); with COLO 205, 50.7 µM (inactive); with NCI-H522 it was 17.5 µM (inactive); with UACC-62, 19.1 µM (inactive); with SF-295 it was 75.9 µM (inactive); in the test with SR, 23.4 µM (inactive). Also, the GI50 with MOLT-4 was 31.6 µM (inactive); in the test with HCT-15 it was 13.8 µM; in the test on EKVX, 33.7 µM (inactive); in the test on HOP-92 it was 29.3 µM (inactive); in the test with TK-10, 56.9 µM (inactive); in the test on HT-29, 46.1 µM (inactive).

For `CC1(C)OCC2OC3([C@@H]4OC(C)(C)O[C@H]4CO)OC(C)(C)OC3C2O1` (some centres undefined), the GI50 in the test with NCI-H226, in the test with OVCAR-5, in the test with LOX IMVI, in the test on CAKI-1, in the test with MCF7 and in the test with RXF 393 was > 100 µM (inactive) in each case. Further, the GI50 in the test on UACC-257, with COLO 205, with UACC-62, in the test with SF-295, with SR and in the test on MOLT-4 was > 100 µM (inactive) each time. In addition, the GI50 in the test with HCT-15 was above 100 µM; with EKVX, > 100 µM (inactive); in the test on HOP-92, > 100 µM (inactive).

For the compound `c1ccc2c(C3CCN(CCN4CCOCC4)C3)c[nH]c2c1` (centres undefined), the GI50 in the test on OVCAR-5, in the test with LOX IMVI, in the test on CAKI-1, in the test on MCF7, in the test with RXF 393 and in the test on UACC-257 was > 100 µM (inactive) in each case. For the same compound, the GI50 is > 100 µM (inactive) with NCI-H522; > 100 µM (inactive) in the test on UACC-62; > 100 µM (inactive) in the test on SF-295; > 100 µM (inactive) in the test with SR; > 100 µM (inactive) with HL-60; above 100 µM in the test with HCT-15. Further, the GI50 in the test on EKVX, in the test on HOP-92, with TK-10 and in the test on HT-29 was > 100 µM (inactive) throughout.

With `COC(=O)[C@@]1(Cc2ccc(O)cc2)C[C@@H]2Cc3ccccc3N2N1`, the GI50 is 90.8 µM (inactive) with NCI-H226; > 100 µM (inactive) in the test on OVCAR-5; > 100 µM (inactive) in the test with LOX IMVI; > 100 µM (inactive) in the test on CAKI-1; 63.2 µM (inactive) in the test with MCF7; 23.3 µM (inactive) in the test with UACC-257. Also, the GI50 is 79.1 µM (inactive) in the test on COLO 205; 58.2 µM (inactive) in the test with NCI-H522; 70.8 µM (inactive) in the test with UACC-62; 49.1 µM (inactive) in the test with SF-295; 31.3 µM (inactive) with SR; 4.8 µM (inactive) with MOLT-4. The GI50 in the test with HCT-15 was 81.8 µM; with EKVX, 64.7 µM (inactive); with HOP-92 it was 43.6 µM (inactive); in the test with TK-10, > 100 µM (inactive); in the test on HT-29 it was 35.5 µM (inactive).

With `Clc1c(C(Cl)(Cl)Cl)nsc1N1CCCCC1`, the GI50 in the test on NCI-H226 was 15.1 µM (inactive); with OVCAR-5, 33.7 µM (inactive); in the test on LOX IMVI, 16.2 µM (inactive); in the test on CAKI-1 it was 19.4 µM (inactive); with MCF7, 26.1 µM (inactive); in the test on RXF 393, 16.8 µM (inactive). The GI50 in the test on UACC-257 is 23.3 µM (inactive); in the test on COLO 205, 16.5 µM (inactive); in the test on UACC-62, 22 µM (inactive); in the test on SF-295, 22.3 µM (inactive); with SR it was 16.1 µM (inactive); in the test with MOLT-4, 15.2 µM (inactive). Moreover, the GI50 is 16.6 µM (inactive) in the test with HL-60; 26.5 µM in the test on HCT-15; 29.9 µM (inactive) with EKVX; 31.6 µM (inactive) in the test on TK-10; 16 µM (inactive) in the test on HT-29.

On to `O=C1C=CN(C2OC(CO)C(O)C2O)C(=O)C1` (centres undefined), for which the GI50 is 423 µM (inactive) in the test on NCI-H226; 1350 µM (inactive) in the test on OVCAR-5; 12 µM (inactive) in the test with LOX IMVI; 22.3 µM (inactive) in the test with CAKI-1; 7.76 µM (inactive) with MCF7; 372 µM (inactive) in the test with RXF 393. The GI50 is 1130 µM (inactive) with UACC-257; 27.1 µM (inactive) with COLO 205; 50.4 µM (inactive) in the test on UACC-62; 5.42 µM (inactive) in the test on SR; 8.34 µM (inactive) with MOLT-4; 9.46 µM (inactive) in the test on HL-60. Besides, the GI50 in the test on HCT-15 was 17.9 µM; with EKVX, > 2500 µM (inactive); with TK-10 it was 2210 µM (inactive); in the test on HT-29, 32.3 µM (inactive).

Turning to `CC(C)C(C/C=C1\CC(CO)(COC(=O)c2ccccc2)OC1=O)C(C)C` (centres undefined), the GI50 in the test with NCI-H226 is 19.8 µM (inactive); in the test on OVCAR-5, 14.3 µM (inactive); with LOX IMVI, 19.5 µM (inactive); in the test with CAKI-1, 18.7 µM (inactive); in the test with MCF7, 20.9 µM (inactive); in the test with RXF 393 it was 23 µM (inactive). For the same compound, the GI50 is 27.6 µM (inactive) with UACC-257; 11.5 µM (inactive) with COLO 205; 21.6 µM (inactive) in the test on NCI-H522; > 100 µM (inactive) in the test on UACC-62; 14.5 µM (inactive) in the test with SF-295; 32.2 µM (inactive) in the test with SR. Moreover, the GI50 in the test with MOLT-4 is 18.2 µM (inactive); in the test with HCT-15 it was 21.6 µM; with EKVX it was 14.9 µM (inactive); in the test with HOP-92, 13.4 µM (inactive); in the test on TK-10, 19 µM (inactive); in the test on HT-29 it was 19.1 µM (inactive).
